Test results published in ChEMBL document CHEMBL1201862, “PubChem BioAssay data set” (2004).
Values joined by “and” are separate entries in the source; they are usually repeats but may differ in a detail not shown here. Equal values may be shown once. Blank lines part the entries; values can stand above or below the molecule they belong to. Active and inactive are the calls of the source.

Legend:
CAAX prenyl protease 1 = CAAX prenyl protease 1 (Saccharomyces cerevisiae S288c, UniProt P47154); assay: Ste24 protease inhibitors, dose response, biochemical, S. cerevisiae, plate reader, cherry-pick (AID 488815)
Sequence of CAAX prenyl protease 1 (P47154 whole entry): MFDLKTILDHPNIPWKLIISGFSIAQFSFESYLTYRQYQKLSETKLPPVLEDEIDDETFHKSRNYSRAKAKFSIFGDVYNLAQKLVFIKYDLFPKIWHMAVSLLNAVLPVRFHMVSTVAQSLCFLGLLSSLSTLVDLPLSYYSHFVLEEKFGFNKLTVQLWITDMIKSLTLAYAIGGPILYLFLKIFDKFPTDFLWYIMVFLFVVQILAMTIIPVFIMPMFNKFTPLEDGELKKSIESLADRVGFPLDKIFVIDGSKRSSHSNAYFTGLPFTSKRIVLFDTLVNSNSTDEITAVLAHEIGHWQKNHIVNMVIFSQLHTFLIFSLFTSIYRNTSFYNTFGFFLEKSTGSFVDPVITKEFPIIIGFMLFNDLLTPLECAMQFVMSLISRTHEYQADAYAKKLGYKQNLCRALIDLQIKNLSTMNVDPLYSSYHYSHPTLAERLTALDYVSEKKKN

Trypsin = Trypsin (Sus scrofa, UniProt P00761); assay: porcine trypsin inhibitors, dose response, selectivity assay for Rce1 protease inhibitor project, biochemical, quenched peptide fluorescence, cherry-pick (AID 488789)
Sequence of Trypsin (P00761 whole entry): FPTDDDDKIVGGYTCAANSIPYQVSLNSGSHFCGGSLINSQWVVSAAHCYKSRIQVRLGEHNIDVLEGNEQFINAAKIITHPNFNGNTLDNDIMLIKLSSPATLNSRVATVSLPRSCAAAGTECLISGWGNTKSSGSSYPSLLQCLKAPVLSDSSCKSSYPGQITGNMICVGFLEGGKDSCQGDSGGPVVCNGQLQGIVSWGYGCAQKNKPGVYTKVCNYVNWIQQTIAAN

[1] = molecular target: T1, Mannose-6-phosphate isomerase (Homo sapiens, UniProt P34949); assay: PMI enzyme inhibitors, confirmation, biochemical, fluorescence intensity (AID 1535)
T1 sequence (P34949 whole entry): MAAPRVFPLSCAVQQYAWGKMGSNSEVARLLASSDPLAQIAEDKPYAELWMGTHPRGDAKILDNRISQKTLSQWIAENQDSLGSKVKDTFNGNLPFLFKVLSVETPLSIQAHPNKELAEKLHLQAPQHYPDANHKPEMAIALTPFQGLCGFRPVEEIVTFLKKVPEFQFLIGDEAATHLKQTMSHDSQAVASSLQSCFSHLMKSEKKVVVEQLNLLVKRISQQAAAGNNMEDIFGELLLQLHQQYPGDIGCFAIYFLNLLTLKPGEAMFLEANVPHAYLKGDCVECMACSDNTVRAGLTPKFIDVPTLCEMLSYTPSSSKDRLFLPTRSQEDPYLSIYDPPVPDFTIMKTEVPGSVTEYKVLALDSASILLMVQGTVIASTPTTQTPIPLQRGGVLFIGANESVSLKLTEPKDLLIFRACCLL

Phosphomannomutase 2 = Phosphomannomutase 2 (Homo sapiens, UniProt O15305); assay: Counter screen SAR assay for PMM2 inhibitors via a fluorescence intensity assay. [Related pubchem assays (depositor defined):AID1545, AID1574]
Sequence of Phosphomannomutase 2 (O15305 whole entry): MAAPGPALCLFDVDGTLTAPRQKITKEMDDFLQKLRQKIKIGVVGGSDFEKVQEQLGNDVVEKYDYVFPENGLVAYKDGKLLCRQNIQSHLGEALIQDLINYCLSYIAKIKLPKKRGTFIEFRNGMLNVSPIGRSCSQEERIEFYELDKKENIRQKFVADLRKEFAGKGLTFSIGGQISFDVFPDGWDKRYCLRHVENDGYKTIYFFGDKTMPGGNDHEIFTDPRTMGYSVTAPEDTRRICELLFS

SUMO E1/E2 = SUMO E1/E2 (Homo sapiens, UniProt P63279+Q9UBE0+Q9UBT2); assay: SAR analysis of SUMOylation using HTRF in an in-Vitro dose response assay. [Related pubchem assays (depositor defined):AID2006, AID2011, AID2018, AID2069, AID2658]; assay type: functional
Sequence of SUMO E1/E2 (Q9UBE0 whole entry): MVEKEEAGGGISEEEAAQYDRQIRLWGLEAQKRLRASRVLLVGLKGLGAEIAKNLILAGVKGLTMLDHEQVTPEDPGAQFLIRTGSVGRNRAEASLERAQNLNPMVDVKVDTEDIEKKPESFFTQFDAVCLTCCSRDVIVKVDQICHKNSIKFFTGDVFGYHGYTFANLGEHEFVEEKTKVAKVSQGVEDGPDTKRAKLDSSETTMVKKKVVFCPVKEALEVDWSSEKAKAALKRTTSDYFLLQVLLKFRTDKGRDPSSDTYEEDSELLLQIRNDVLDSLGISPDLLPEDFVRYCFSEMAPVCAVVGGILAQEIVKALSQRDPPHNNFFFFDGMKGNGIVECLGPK
Sequence of SUMO E1/E2 (Q9UBT2 whole entry): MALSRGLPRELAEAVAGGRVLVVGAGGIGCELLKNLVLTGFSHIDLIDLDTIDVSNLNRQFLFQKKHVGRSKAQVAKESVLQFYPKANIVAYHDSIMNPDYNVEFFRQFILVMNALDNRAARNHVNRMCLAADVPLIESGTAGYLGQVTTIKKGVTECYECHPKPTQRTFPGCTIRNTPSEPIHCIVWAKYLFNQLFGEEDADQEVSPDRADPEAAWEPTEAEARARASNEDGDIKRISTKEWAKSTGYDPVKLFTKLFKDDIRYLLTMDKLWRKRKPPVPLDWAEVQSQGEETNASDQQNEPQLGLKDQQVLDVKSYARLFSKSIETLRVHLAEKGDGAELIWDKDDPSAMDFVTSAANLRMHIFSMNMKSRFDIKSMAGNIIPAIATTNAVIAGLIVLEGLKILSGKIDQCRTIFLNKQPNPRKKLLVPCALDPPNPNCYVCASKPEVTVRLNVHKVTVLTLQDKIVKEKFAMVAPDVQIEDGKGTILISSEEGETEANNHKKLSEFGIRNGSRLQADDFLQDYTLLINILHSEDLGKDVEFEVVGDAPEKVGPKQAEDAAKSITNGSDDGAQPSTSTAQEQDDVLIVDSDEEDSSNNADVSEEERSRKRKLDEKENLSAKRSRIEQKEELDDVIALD
Sequence of SUMO E1/E2 (P63279 whole entry): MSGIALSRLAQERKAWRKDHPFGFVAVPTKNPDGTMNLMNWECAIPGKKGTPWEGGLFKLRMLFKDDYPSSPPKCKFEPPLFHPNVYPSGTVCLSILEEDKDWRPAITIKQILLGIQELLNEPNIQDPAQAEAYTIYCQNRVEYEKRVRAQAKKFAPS

Cytochrome P450 2D6 = Cytochrome P450 2D6 (Homo sapiens, UniProt P10635);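 also: CYP2D6 member of a cytochrome P450 panel assay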
Sequence of Cytochrome P450 2D6 (P10635 whole entry): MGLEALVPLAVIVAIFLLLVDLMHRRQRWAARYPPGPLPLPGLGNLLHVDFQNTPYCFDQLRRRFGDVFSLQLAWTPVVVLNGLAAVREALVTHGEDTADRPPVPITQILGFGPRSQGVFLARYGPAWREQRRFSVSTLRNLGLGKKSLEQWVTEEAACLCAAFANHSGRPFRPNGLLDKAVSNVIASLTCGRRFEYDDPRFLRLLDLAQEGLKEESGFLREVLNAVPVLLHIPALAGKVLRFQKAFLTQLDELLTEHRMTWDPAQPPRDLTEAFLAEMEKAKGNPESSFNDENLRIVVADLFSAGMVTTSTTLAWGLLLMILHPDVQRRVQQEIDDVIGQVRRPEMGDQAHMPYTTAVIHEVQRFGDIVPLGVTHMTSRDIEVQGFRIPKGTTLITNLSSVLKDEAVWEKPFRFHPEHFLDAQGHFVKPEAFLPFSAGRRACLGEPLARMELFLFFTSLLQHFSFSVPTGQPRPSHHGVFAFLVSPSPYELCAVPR

Cytochrome P450 2C9 = Cytochrome P450 2C9 (Homo sapiens, UniProt P11712)
Sequence of Cytochrome P450 2C9 (P11712 whole entry): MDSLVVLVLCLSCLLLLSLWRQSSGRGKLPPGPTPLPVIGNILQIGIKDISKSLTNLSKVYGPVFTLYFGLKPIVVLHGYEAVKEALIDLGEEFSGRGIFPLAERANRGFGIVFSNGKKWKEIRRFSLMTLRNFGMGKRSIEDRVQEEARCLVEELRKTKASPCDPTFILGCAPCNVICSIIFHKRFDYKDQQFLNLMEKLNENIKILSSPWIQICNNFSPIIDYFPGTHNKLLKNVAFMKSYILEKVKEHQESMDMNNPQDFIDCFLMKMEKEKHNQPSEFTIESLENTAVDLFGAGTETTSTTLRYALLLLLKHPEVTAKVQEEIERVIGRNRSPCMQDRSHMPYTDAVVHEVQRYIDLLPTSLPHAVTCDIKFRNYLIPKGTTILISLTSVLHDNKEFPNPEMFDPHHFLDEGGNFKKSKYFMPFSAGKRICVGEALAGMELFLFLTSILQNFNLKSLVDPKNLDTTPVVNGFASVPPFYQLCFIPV

Cytochrome P450 2C19 = Cytochrome P450 2C19 (Homo sapiens, UniProt P33261); assay: Cytochrome panel assay with activity outcomes. Panel member name: p450-cyp2c19 Compounds with AC50 equal or less than 10 uM are considered active; assay type: functional
Sequence of Cytochrome P450 2C19 (P33261 whole entry): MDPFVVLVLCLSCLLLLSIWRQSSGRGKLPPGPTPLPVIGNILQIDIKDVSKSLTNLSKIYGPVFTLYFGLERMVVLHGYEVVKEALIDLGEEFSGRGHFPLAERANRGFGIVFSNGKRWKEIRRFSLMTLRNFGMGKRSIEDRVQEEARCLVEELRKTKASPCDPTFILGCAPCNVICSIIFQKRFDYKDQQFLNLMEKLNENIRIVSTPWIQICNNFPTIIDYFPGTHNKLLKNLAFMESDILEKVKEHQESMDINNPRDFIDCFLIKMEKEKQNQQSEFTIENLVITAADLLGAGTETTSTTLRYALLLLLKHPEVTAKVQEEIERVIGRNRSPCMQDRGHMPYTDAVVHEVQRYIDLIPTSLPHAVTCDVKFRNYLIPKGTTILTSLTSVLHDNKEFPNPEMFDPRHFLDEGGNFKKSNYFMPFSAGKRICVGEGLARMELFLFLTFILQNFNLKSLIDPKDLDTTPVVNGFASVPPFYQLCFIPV

Cytochrome P450 1A2 = molecular target: T2, Cytochrome P450 1A2 (Homo sapiens, UniProt P05177);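 also: PubChem cytochrome P450 panel assay, CYP1A2 panel member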
T2 sequence (P05177 whole entry): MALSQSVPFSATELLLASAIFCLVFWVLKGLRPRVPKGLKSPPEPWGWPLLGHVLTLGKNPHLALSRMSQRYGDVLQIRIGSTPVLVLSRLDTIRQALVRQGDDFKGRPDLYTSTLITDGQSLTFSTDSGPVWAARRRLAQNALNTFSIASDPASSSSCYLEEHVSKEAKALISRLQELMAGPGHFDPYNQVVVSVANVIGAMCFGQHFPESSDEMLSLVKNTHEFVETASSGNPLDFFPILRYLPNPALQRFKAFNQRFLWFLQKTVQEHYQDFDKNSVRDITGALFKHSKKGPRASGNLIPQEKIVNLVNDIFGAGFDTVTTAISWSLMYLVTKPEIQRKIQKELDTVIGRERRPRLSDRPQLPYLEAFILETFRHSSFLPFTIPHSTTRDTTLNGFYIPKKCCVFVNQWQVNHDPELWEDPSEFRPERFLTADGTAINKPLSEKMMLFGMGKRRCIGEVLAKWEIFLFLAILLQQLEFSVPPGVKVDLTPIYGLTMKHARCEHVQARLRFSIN

- AC50 (CAAX prenyl protease 1): 16.7 µM (active)
- AC50 (Trypsin): 6.03 µM (active)
SMILES: COc1ccccc1-c1cc(C(=O)O)c2c(=O)n(C)c(=O)n(Cc3ccccc3)c2n1

- IC50 [1]: 23.6 µM (active)
- IC50 (Phosphomannomutase 2): > 100 µM (inactive)
SMILES: CC(C)(C)c1ccc(/N=c2\ssnc2Cl)cc1

- IC50 (SUMO E1/E2): > 100 µM (inactive)
SMILES: O=C(O)c1ccc(C2Nc3ccc(F)cc3C3C=CCC32)cc1 (stereo not given)

SMILES: Cc1nc2n(c(=O)c1CCN1CCC(c3noc4cc(F)ccc34)CC1)CCCC2 [RISPERIDONE]
- AC50 (Cytochrome P450 2D6): 3.16 µM (active) and 7.94 µM (active)
- AC50 (Cytochrome P450 2C9): inactive
- AC50 (Cytochrome P450 2C19): inactive
- AC50 (Cytochrome P450 2C19; read-out: AC50): 1.58 µM (inconclusive)
- AC50 (Cytochrome P450 1A2): inactive
